Test results as given in patent US8501946B2 (Glaxo Group Limited, priority 2009, dated 2013).

Each compound was assayed against T1, human recombinant P2X7 receptors (Homo sapiens, UniProt Q99572) (assay: Ethidium Accumulation Assay 2 (HEK293 cells, ATP-induced ethidium uptake)). Settings: HEK293 cells expressing human P2X7; read-out: Assay 2 (antagonist pIC50 for blocking ATP responses), numeric value (converted).
T1 construct: expressed in transfected cells
T1 sequence (Q99572 1-595): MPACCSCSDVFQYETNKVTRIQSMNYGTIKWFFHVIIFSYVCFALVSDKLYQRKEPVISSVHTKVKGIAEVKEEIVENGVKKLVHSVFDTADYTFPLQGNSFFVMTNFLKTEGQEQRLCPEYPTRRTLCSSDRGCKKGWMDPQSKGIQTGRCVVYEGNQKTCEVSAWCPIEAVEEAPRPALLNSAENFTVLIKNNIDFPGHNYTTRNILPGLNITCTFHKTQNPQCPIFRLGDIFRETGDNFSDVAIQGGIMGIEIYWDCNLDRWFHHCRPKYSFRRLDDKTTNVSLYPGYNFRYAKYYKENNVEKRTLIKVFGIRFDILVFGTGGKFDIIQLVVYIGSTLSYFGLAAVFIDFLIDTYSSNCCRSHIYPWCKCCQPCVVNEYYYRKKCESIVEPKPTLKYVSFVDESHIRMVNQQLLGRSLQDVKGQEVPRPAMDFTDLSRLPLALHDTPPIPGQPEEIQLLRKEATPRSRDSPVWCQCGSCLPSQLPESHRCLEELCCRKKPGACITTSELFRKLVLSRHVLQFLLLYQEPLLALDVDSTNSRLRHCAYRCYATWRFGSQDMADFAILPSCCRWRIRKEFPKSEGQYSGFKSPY
Format: cell-based
Procedure: Eithidium Accumulation Assay 2
Human Embryonic Kidney (HEK) 293 cells, stably expressing human recombinant P2X7 receptors, were grown in poly-D-lysine pretreated 96 well plates for 24 hours at 37° C.
The cells were washed with assay buffer (100 μL), before addition of 25 μL of assay buffer and then 25 ul of assay buffer containing the putative P2X7 receptor antagonist compound. The cells were then incubated at room temperature (19-21° C.) for 30 min before addition of ATP solution (50 μM). […] Antagonist pIC50 values for blocking ATP responses were determined using iterative curve fitting techniques.

Row | SMILES | IC50 [nM]
1 | Cc1nnsc1-c1nnc2n1CCN(C(=O)c1ccc(Cl)c(F)c1Cl)C2 [Example 179, 7-[(2,4-Dichloro-3-fluorophenyl)carbonyl]-3-(4-methyl-1,2,3-thiadiazol-5-yl)-5,6,7,8-tetrahydro[1,2,4]triazolo[4,3-a]pyrazine] | 631

Same assay, conditions: HEK293 cells expressing human P2X7; sometimes mean of more than one measurement; read-out: Assay 2 (antagonist pIC50 for blocking ATP responses) (converted)

Row | SMILES | IC50 [nM]
2 | O=C(c1ccc(F)cc1Cl)N1CCn2c(nnc2-c2cnc(F)cn2)C1 [Example 165, 7-[(2-chloro-4-fluorophenyl)carbonyl]-3-(5-fluoro-2-pyrazinyl)-5,6,7,8-tetrahydro[1,2,4]triazolo[4,3-a]pyrazine] | < 100
3 | O=C(c1ccc(Cl)c(F)c1Cl)N1CCn2c(nnc2-c2cncs2)C1 [Example 185, 7-[(2,4-Dichloro-3-fluorophenyl)carbonyl]-3-(1,3-thiazol-5-yl)-5,6,7,8-tetrahydro[1,2,4]triazolo[4,3-a]pyrazine] | < 100
4 | COc1cccc(-c2nnc3n2CCN(C(=O)c2ccc(Cl)c(F)c2Cl)C3)n1 [Example 176, 7-[(2,4-dichloro-3-fluorophenyl)carbonyl]-3-[6-(methyloxy)-2-pyridinyl]-5,6,7,8-tetrahydro[1,2,4]triazolo[4,3-a]pyrazine] | < 100
5 | Cc1c(Cl)ccc(C(=O)N2CCn3c(nnc3-c3cnccn3)C2)c1Cl [Example 154, 7-[(2,4-dichloro-3-methylphenyl)carbonyl]-3-(2-pyrazinyl)-5,6,7,8-tetrahydro[1,2,4]triazolo[4,3-a]pyrazine] | < 10
6 | O=C(c1ccc(Cl)cc1Cl)N1CCn2c(nnc2-c2ncns2)C1 [Example 205, 7-[(2,4-dichlorophenyl)carbonyl]-3-(1,2,4-thiadiazol-5-yl)-5,6,7,8-tetrahydro[1,2,4]triazolo[4,3-a]pyrazine] | < 100
7 | O=C(c1cccc(C(F)(F)F)c1Cl)N1CCn2c(nnc2-c2cccnc2O)C1 [Example 163, 3-(7-{[2-chloro-3-(trifluoromethyl)phenyl]carbonyl}-5,6,7,8-tetrahydro[1,2,4]triazolo[4,3-a]pyrazin-3-yl)-2-pyridinol] | < 100
8 | Cc1ccnc(-c2nnc3n2CCN(C(=O)c2ccc(Cl)c(F)c2Cl)C3)n1 [Example 177, 7-[(2,4-dichloro-3-fluorophenyl)carbonyl]-3-(4-methyl-2-pyrimidinyl)-5,6,7,8-tetrahydro[1,2,4]triazolo[4,3-a]pyrazine] | < 10
9 | O=C(c1ccc(Cl)c(F)c1Cl)N1CCn2c(nnc2-c2cccnc2O)C1 [Example 171, 3-{7-[(2,4-dichloro-3-fluorophenyl)carbonyl]-5,6,7,8-tetrahydro[1,2,4]triazolo[4,3-a]pyrazin-3-yl}-2-pyridinol] | < 100
10 | Cc1ccc(C(=O)N2CCn3c(nnc3-c3cnccn3)C2)c(Cl)c1Cl [Example 152, 7-[(2,3-dichloro-4-methylphenyl)carbonyl]-3-(2-pyrazinyl)-5,6,7,8-tetrahydro[1,2,4]triazolo[4,3-a]pyrazine] | < 10
11 | Cc1c(C(=O)N2CCn3c(nnc3-c3ccc(F)cn3)C2)ccc(F)c1F [Example 155, 7-[(3,4-difluoro-2-methylphenyl)carbonyl]-3-(5-fluoro-2-pyridinyl)-5,6,7,8-tetrahydro[1,2,4]triazolo[4,3-a]pyrazine] | < 100
12 | Cc1c(C(=O)N2CCn3c(nnc3-c3ccc(F)cn3)C2)ccc(F)c1Cl [Example 156, 7-[(3-chloro-4-fluoro-2-methylphenyl)carbonyl]-3-(5-fluoro-2-pyridinyl)-5,6,7,8-tetrahydro[1,2,4]triazolo[4,3-a]pyrazine] | < 10
13 | Cc1c(C(=O)N2CCn3c(nnc3-c3cnccn3)C2)ccc(F)c1F [Example 151, 7-[(3,4-difluoro-2-methylphenyl)carbonyl]-3-(2-pyrazinyl)-5,6,7,8-tetrahydro[1,2,4]triazolo[4,3-a]pyrazine] | < 10
14 | O=C(c1ccc(Cl)c(F)c1Cl)N1CCn2c(nnc2-n2cccn2)C1 [Example 184, 7-[(2,4-Dichloro-3-fluorophenyl)carbonyl]-3-(1H-pyrazol-1-yl)-5,6,7,8-tetrahydro[1,2,4]triazolo[4,3-a]pyrazine] | < 100
15 | [2H]c1ccc(-c2nnc3n2CCN(C(=O)c2ccc(Cl)c(F)c2Cl)C3)nc1 [Example 183, 7-[(2,4-Dichloro-3-fluorophenyl)carbonyl]-3-(2-pyridinyl)-5,6,7,8-tetrahydro[1,2,4]triazolo[4,3-a]pyrazine-d1] | < 10
16 | [2H]c1ccnc(-c2nnc3n2CCN(C(=O)c2ccc(Cl)c(F)c2Cl)C3)c1 [Example 182, 7-[(2,4-Dichloro-3-fluorophenyl)carbonyl]-3-(2-pyridinyl)-5,6,7,8-tetrahydro[1,2,4]triazolo[4,3-a]pyrazine-d1] | < 10
17 | O=C(c1ccc(Cl)c(F)c1Cl)N1CCn2c(nnc2-c2csnn2)C1 [Example 189, 7-[(2,4-Dichloro-3-fluorophenyl)carbonyl]-3-(1,2,3-thiadiazol-4-yl)-5,6,7,8-tetrahydro[1,2,4]triazolo[4,3-a]pyrazine] | < 100
18 | O=C(c1ccc(Cl)c(F)c1Cl)N1CCn2c(nnc2-c2ncccc2O)C1 [Example 175, 2-{7-[(2,4-dichloro-3-fluorophenyl)carbonyl]-5,6,7,8-tetrahydro[1,2,4]triazolo[4,3-a]pyrazin-3-yl}-3-pyridinol] | < 100
19 | Cc1c(F)ccc(C(=O)N2CCn3c(nnc3-c3cnccn3)C2)c1Cl [Example 153, 7-[(2-chloro-4-fluoro-3-methylphenyl)carbonyl]-3-(2-pyrazinyl)-5,6,7,8-tetrahydro[1,2,4]triazolo[4,3-a]pyrazine] | < 10
20 | O=C(c1ccc(Cl)c(F)c1Cl)N1CCn2c(nnc2-c2ncns2)C1 [Example 186, 7-[(2,4-Dichloro-3-fluorophenyl)carbonyl]-3-(1,2,4-thiadiazol-5-yl)-5,6,7,8-tetrahydro[1,2,4]triazolo[4,3-a]pyrazine] | < 10
21 | O=C(c1cccc(Cl)c1Cl)N1CCn2c(nnc2-c2ncns2)C1 [Example 192, 7-[(2,3-Dichlorophenyl)carbonyl]-3-(1,2,4-thiadiazol-5-yl)-5,6,7,8-tetrahydro [1,2,4]triazolo[4,3-a]pyrazine] | < 10
22 | Cc1c(C(=O)N2CCn3c(nnc3-c3nccs3)C2)ccc(F)c1Cl [Example 201, 7-[(3-Chloro-4-fluoro-2-methylphenyl)carbonyl]-3-(1,3-thiazol-2-yl)-5,6,7,8-tetrahydro[1,2,4]triazolo[4,3-a]pyrazine] | < 10
23 | O=C(c1cccc(C(F)(F)F)c1Cl)N1CCn2c(nnc2-c2ncns2)C1 [Example 164, 7-{[2-chloro-3-(trifluoromethyl)phenyl]carbonyl}-3-(1,2,4-thiadiazol-5-yl)-5,6,7,8-tetrahydro[1,2,4]triazolo[4,3-a]pyrazine] | < 10
24 | O=C(c1ccc(Cl)cc1Cl)N1CCn2c(nnc2-c2ccno2)C1 [Example 157, 7-[(2,4-dichlorophenyl)carbonyl]-3-(5-isoxazolyl)-5,6,7,8-tetrahydro[1,2,4]triazolo[4,3-a]pyrazine] | < 501
25 | O=C(c1ccc(Cl)cc1Cl)N1CCn2c(nnc2-c2ccns2)C1 [Example 158, 7-[(2,4-dichlorophenyl)carbonyl]-3-(5-isothiazolyl)-5,6,7,8-tetrahydro[1,2,4]triazolo[4,3-a]pyrazine] | < 100
26 | O=C(c1ccc(F)cc1Br)N1CCn2c(nnc2-c2cnccn2)C1 [Example 147, 7-[(2-bromo-4-fluorophenyl)carbonyl]-3-(2-pyrazinyl)-5,6,7,8-tetrahydro[1,2,4]triazolo[4,3-a]pyrazine] | < 10
27 | Cc1scnc1-c1nnc2n1CCN(C(=O)c1ccc(Cl)c(F)c1Cl)C2 [Example 197, 7-[(2,4-Dichloro-3-fluorophenyl)carbonyl]-3-(5-methyl-1,3-thiazol-4-yl)-5,6,7,8-tetrahydro[1,2,4]triazolo[4,3-a]pyrazine] | < 10
28 | Cc1ccc(-c2nnc3n2CCN(C(=O)c2cccc(C(F)(F)F)c2Cl)C3)o1 [Example 159, 7-{[2-chloro-3-(trifluoromethyl)phenyl]carbonyl}-3-(5-methyl-2-furanyl)-5,6,7,8-tetrahydro[1,2,4]triazolo[4,3-a]pyrazine] | < 10
29 | Cc1c(Cl)cccc1C(=O)N1CCn2c(nnc2-c2nccs2)C1 [Example 200, 7-[(3-Chloro-2-methylphenyl)carbonyl]-3-(1,3-thiazol-2-yl)-5,6,7,8-tetrahydro[1,2,4]triazolo[4,3-a]pyrazine] | < 100
30 | Cc1cc(Cl)ccc1C(=O)N1CCn2c(nnc2-c2cnccn2)C1 [Example 145, 7-[(4-chloro-2-methylphenyl)carbonyl]-3-(2-pyrazinyl)-5,6,7,8-tetrahydro[1,2,4]triazolo[4,3-a]pyrazine] | < 100
31 | Cc1c(Cl)cccc1C(=O)N1CCn2c(nnc2-c2ncns2)C1 [Example 195, 7-[(3-Chloro-2-methylphenyl)carbonyl]-3-(1,2,4-thiadiazol-5-yl)-5,6,7,8-tetrahydro[1,2,4]triazolo[4,3-a]pyrazine] | < 10
